Data from patent US11570992B2, “Bicyclic compounds” (BASF SE, priority 2016, dated 2023).

How the values were obtained:
Assay type in all cases: in vivo
[1] = test system: boll weevil (Anthonomus grandis); experiment: Boll weevil test, 96-well microtiter plates with insect diet and eggs; conditions: 120 h, egg and larval mortality after 5 days, read-out: mortality in comparison with untreated controls
Experimental: Boll Weevil (Anthonomus gandis)
For evaluating control of boll weevil (Anthonomus grandis) the test unit consisted of 96-well-microtiter plates containing an insect diet and 5-10 A. grandis eggs.
The compounds were formulated using a solution containing 75% v/v water and 25% v/v DMSO. Different concentrations of formulated compounds were sprayed onto the insect diet at 5 μl, using a custom built micro atomizer, at two replications.
After application, microtiter plates were incubated at about 25±1° C. and about 75±5% relative humidity for 5 days. Egg and larval mortality was then visually assessed.

[2] = test system: Diamond Back Moth (Plutella xylostella); experiment: Diamond back moth test, dipped cabbage leaves; conditions: 3rd instar larvae, 72 hours after treatment, read-out: mortality in comparison with untreated controls
Experimental: Diamond Back Moth (Plutella xylostella)
The active compound is dissolved at the desired concentration in a mixture of 1:1 (vol:vol) distilled water:acetone. Surfactant (Kinetic® HV) is added at a rate of 0.01% (vol/vol). The test solution is prepared at the day of use.
Leaves of cabbage were dipped in test solution and air-dried. Treated leaves were placed in petri dishes lined with moist filter paper and inoculated with ten 3rd instar larvae. Mortality was recorded 72 hours after treatment. Feeding damages were also recorded using a scale of 0-100%.

[3] = test system: vetch aphid (Megoura viciae); experiment: Vetch aphid test, broad bean leaf disks in 24-well plates; conditions: foliar, 120 h, 5 days, read-out: mortality in comparison with untreated controls
Experimental: Vetch Aphid (Megoura viciae)
For evaluating control of vetch aphid (Megoura viciae) through contact or systemic means the test unit consisted of 24-well-microtiter plates containing broad bean leaf disks.
The compounds were formulated using a solution containing 75% v/v water and 25% v/v DMSO. Different concentrations of formulated compounds were sprayed onto the leaf disks at 2.5 μl, using a custom built micro atomizer, at two replications.
After application, the leaf disks were air-dried and 5-8 adult aphids placed on the leaf disks inside the microtiter plate wells. The aphids were then allowed to suck on the treated leaf disks and incubated at about 23±1° C. and about 50±5% relative humidity for 5 days. Aphid mortality and fecundity was then visually assessed.

Cn1c(C(F)(F)F)cc2nc(-c3ccccc3Cl)cn2c1=O [Example C-1, 2-(2-chlorophenyl)-6-methyl-7-(trifluoromethyl)imidazo[1,2-c]pyrimidin-5-one]
mortality at 800 ppm [1]: > 75%

CCS(=O)(=O)c1cccnc1-c1nc2cc(C(F)(F)F)cc(=O)n2n1C [Example C-4, 2-(3-ethylsulfonyl-2-pyridyl)-3-methyl-7-(trifluoromethyl)-[1,2,4]triazolo[1,5-a]pyridin-5-one]
mortality at 300 ppm [2]: > 75% | mortality at 800 ppm [3]: > 75%
